Measured values published in patent publication US12091402B2 (Avilar Therapeutics, Inc., priority 2021, dated 2024).
Where a SMILES comes first, the peptide text is derived from it. Bridges are numbered along the chain shown (N, C = ends). The star is where a group is joined. X3 = O=C(CCOCC(COCCC(=O)NCCOCCOCCOCCOC[C@@]12CO[C@@H](O1)[C@H](Nc1nc(Cl)ns1)[C@@H](O)[C@H]2O)NC(=O)CCCCCn1cc(CCCC(=O)*)nn1)NCCOCCOCCOCCOC[C@@]12CO[C@@H](O1)[C@H](Nc1nc(Cl)ns1)[C@@H](O)[C@H]2O; PEG4 = NCCOCCOCCOCCOCCC(=O)O

Target: T1, ASGPR (Homo sapiens, UniProt P07306)
T1 sequence (P07306 1-291): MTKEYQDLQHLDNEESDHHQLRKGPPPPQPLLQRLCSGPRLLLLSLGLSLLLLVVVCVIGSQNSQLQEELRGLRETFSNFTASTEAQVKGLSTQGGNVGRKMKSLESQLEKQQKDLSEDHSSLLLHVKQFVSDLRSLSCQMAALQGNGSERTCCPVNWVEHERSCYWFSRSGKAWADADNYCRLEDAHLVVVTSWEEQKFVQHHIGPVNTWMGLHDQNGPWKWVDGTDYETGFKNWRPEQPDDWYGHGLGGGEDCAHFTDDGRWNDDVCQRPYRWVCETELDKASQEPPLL
Assay: Affinity to ASGPR by surface plasmon resonance (SPR)

Row | Kd | SMILES
1 | < 0.1 µM | O=C(O)CNC(COCCC(=O)NCCOCCOCCOCCOC[C@H]1OC[C@H](Nc2cncc(C(F)(F)F)n2)[C@@H](O)[C@H]1O)COCCC(=O)NCCOCCOCCOCCOC[C@H]1OC[C@H](Nc2cncc(C(F)(F)F)n2)[C@@H](O)[C@H]1O [A31, (1,39-bis((2R,3R,4R,5S)-3,4-dihydroxy-5-((6-(trifluoromethyl)pyrazin-2-yl)amino)tetrahydro-2H-pyran-2-yl)-15,25-dioxo-2,5,8,11,18,22,29,32,35,38-decaoxa-14,26-diazanonatriacontan-20-yl)glycine]
2 | 10 to 100 µM | C[C@@H]1O[C@H](CO)[C@H](O)[C@H](O)[C@H]1Nc1nccc(C(F)(F)F)n1 [A55, (2R,3R,4R,5R,6S)-2-(hydroxymethyl)-6-methyl-5-((4-(trifluoromethyl)pyrimidin-2-yl)amino)tetrahydro-2H-pyran-3,4-diol]
3 | > 20 µM | N=C(N)N[C@H]1CO[C@H](COCc2ccccc2)[C@H](OCc2ccccc2)[C@@H]1OCc1ccccc1 [A73, 1-((3S,4R,5R,6R)-4,5-bis(benzyloxy)-6-((benzyloxy)methyl)tetrahydro-2H-pyran-3-yl)guanidine]
4 | 1 to 10 µM | OC[C@H]1OC[C@H](Nc2nccnc2C(F)(F)F)[C@@H](O)[C@H]1O [A101, (2R,3R,4R,5S)-2-(hydroxymethyl)-5-((3-(trifluoromethyl)pyrazin-2-yl)amino)tetrahydro-2H-pyran-3,4-diol]
5 | > 20 µM | C=CCO[C@H]1O[C@H](CO)[C@H](O)[C@H](O)[C@H]1N [A52, (2R,3R,4R,5R,6S)-6-(allyloxy)-5-amino-2-(hydroxymethyl)tetrahydro-2H-pyran-3,4-diol]
6 | > 20 µM | OC[C@@]12CO[C@@H](O1)[C@H](Nc1ncc3c(C(F)(F)F)n[nH]c3n1)[C@@H](O)[C@H]2O [A37, (1S,2R,3R,4R,5S)-1-(hydroxymethyl)-4-((3-(trifluoromethyl)-1H-pyrazolo[3,4-d]pyrimidin-6-yl)amino)-6,8-dioxabicyclo[3.2.1]octane-2,3-diol]
7 | < 1 µM | OC[C@@]12CO[C@@H](O1)[C@H](Nc1cc(Cl)cnc1Cl)[C@@H](O)[C@H]2O [A44, (1S,2R,3R,4R,5S)-4-[(2,5-dichloro-3-pyridyl)amino]-1-(hydroxymethyl)-6,8-dioxabicyclo[3.2.1]octane-2,3-diol]
8 | 1 to 10 µM | O[C@@H]1[C@H](O)[C@@H](Nc2cncc(C(F)(F)F)n2)CO[C@@H]1CNc1ccccc1 [A95, (2R,3R,4R,5S)-2-((phenylamino)methyl)-5-((6-(trifluoromethyl)pyrazin-2-yl)amino)tetrahydro-2H-pyran-3,4-diol]
9 | < 1 µM | NC[C@H]1OC[C@H](Nc2cncc(C(F)(F)F)n2)[C@@H](O)[C@H]1O [A89, (2R,3R,4R,5S)-2-(aminomethyl)-5-((6-(trifluoromethyl)pyrazin-2-yl)amino)tetrahydro-2H-pyran-3,4-diol]
10 | < 1 µM | COc1cccc(-c2cn(C[C@H]3OC[C@H](Nc4nccc(C(F)(F)F)n4)[C@@H](O)[C@H]3O)nn2)c1 [A65, (2R,3R,4R,5S)-2-((4-(3-methoxyphenyl)-1H-1,2,3-triazol-1-yl)methyl)-5-((4-(trifluoromethyl)pyrimidin-2-yl)amino)tetrahydro-2H-pyran-3,4-diol]
11 | > 20 µM | OC[C@H]1OC[C@H](Nc2cc(C(F)(F)F)nc(Cl)n2)[C@@H](O)[C@H]1O [A78, (2R,3R,4R,5S)-5-((2-chloro-6-(trifluoromethyl)pyrimidin-4-yl)amino)-2-(hydroxymethyl)tetrahydro-2H-pyran-3,4-diol]
12 | < 1 µM | O=C(O)CC(=O)NC[C@H]1OC[C@H](Nc2cncc(C(F)(F)F)n2)[C@@H](O)[C@H]1O [A32, 3-((((2R,3R,4R,5S)-3,4-dihydroxy-5-((6-(trifluoromethyl)pyrazin-2-yl)amino)tetrahydro-2H-pyran-2-yl)methyl)amino)-3-oxopropanoic acid]
13 | > 20 µM | O=C(NC[C@H]1OC[C@H](Nc2cncc(C(F)(F)F)n2)[C@@H](O)[C@H]1O)[C@H]1C[C@H]1F [A108, (1R,2R)—N-(((2R,3R,4R,5S)-3,4-dihydroxy-5-((6-(trifluoromethyl)pyrazin-2-yl)amino)tetrahydro-2H-pyran-2-yl)methyl)-2-fluorocyclopropane-1-carboxamide]
14 | 0.1 to 0.5 µM | [N-]=[N+]=NCCOCCOCCOCCOC[C@H]1OC[C@H](Nc2cncc(C(F)(F)F)n2)[C@@H](O)[C@H]1O [A21, (2R,3R,4R,5S)-2-(13-azido-2,5,8,11-tetraoxatridecyl)-5-((6-(trifluoromethyl)pyrazin-2-yl)amino)tetrahydro-2H-pyran-3,4-diol]
15 | < 1 µM | CN(C)C[C@H]1OC[C@H](Nc2cncc(C(F)(F)F)n2)[C@@H](O)[C@H]1O [A126]
16 | 1 to 10 µM | O[C@@H]1[C@H](O)[C@@H](Nc2cncc(C(F)(F)F)n2)CO[C@@H]1CN1CCCCC1 [A96, (2R,3R,4R,5S)-2-(piperidin-1-ylmethyl)-5-((6-(trifluoromethyl)pyrazin-2-yl)amino)tetrahydro-2H-pyran-3,4-diol]
17 | < 1 µM | OCc1cn(C[C@H]2OC[C@H](Nc3nccc(C(F)(F)F)n3)[C@@H](O)[C@H]2O)nn1 [A68, (2R,3R,4R,5S)-2-((4-(hydroxymethyl)-1H-1,2,3-triazol-1-yl)methyl)-5-((4-(trifluoromethyl)pyrimidin-2-yl)amino)tetrahydro-2H-pyran-3,4-diol]
18 | 1 to 10 µM | COCCO[C@@H]1O[C@H](CO)[C@H](O)[C@H](O)[C@H]1Nc1cncc(C(F)(F)F)n1 [A105, (2R,3R,4R,5R,6R)-2-(hydroxymethyl)-6-(2-methoxyethoxy)-5-((6-(trifluoromethyl)pyrazin-2-yl)amino)tetrahydro-2H-pyran-3,4-diol]
19 | < 0.1 µM | O=C(O)COCCOCC(=O)NC(COCCC(=O)NCCOCCOCCOCCOC[C@H]1OC[C@H](Nc2nccc(C(F)(F)F)n2)[C@@H](O)[C@H]1O)COCCC(=O)NCCOCCOCCOCCOC[C@H]1OC[C@H](Nc2nccc(C(F)(F)F)n2)[C@@H](O)[C@H]1O [A24, 1-((2R,3R,4R,5S)-3,4-dihydroxy-5-((4-(trifluoromethyl)pyrimidin-2-yl)amino)tetrahydro-2H-pyran-2-yl)-20-(1-((2R,3R,4R,5S)-3,4-dihydroxy-5-((4-(trifluoromethyl)pyrimidin-2-yl)amino)tetrahydro-2H-pyran-2-yl)-15-oxo-2,5,8,11,18-pentaoxa-14-azanonadecan-19-yl)-15,22-dioxo-2,5,8,11,18,24,27-heptaoxa-14,21-diazanonacosan-29-oic acid]

Row | SMILES | Kd
20 | CC(C)C[C@@H]1NC(=O)[C@@H](NC(=O)[C@@H](NC(=O)[C@H](CCC(N)=O)NC(=O)[C@H](Cc2c[nH]cn2)NC(=O)CCOCCOCCOCCOCCNC(=O)CCCc2cn(CCCCCC(=O)NC(COCCC(=O)NCCOCCOCCOCCOC[C@@]34CO[C@@H](O3)[C@H](Nc3nc(Cl)ns3)[C@@H](O)[C@H]4O)COCCC(=O)NCCOCCOCCOCCOC[C@@]34CO[C@@H](O3)[C@H](Nc3nc(Cl)ns3)[C@@H](O)[C@H]4O)nn2)C(C)C)CSSC[C@@H](C(=O)N[C@@H](Cc2ccccc2)C(=O)N[C@@H](CO)C(=O)N[C@H](C(N)=O)[C@@H](C)O)NC(=O)[C@H](C(C)C)NC(=O)[C@@H]2CCCN2C(=O)[C@H](CCCNC(=N)N)NC(=O)CNC(=O)[C@H](CCCNC(=N)N)NC(=O)[C@H](Cc2ccc(O)cc2)NC(=O)[C@H](CO)NC1=O [Compound 19] ({X3-PEG4}-HQVCLSYRGRPVCFST-NH2; disulfide 4-13) | < 0.1 µM
